# Laboratory results published in patent publication US10407398B2, “Inhibitors of Pseudomonas aeruginosa LecB” (priority 2015, dated 2019).
# Columns and labels:
# [1] = biological target: T1, LecBPAO1 (Pseudomonas aeruginosa, UniProt Q9HYN5); test: Microcalorimetric assay (ITC) for direct binding; conditions: for N: ITC binding stoichiometry, one site binding model; for N / ΔG / ΔH / −TΔS: LecBPAO1; for ΔG / ΔH / −TΔS: ITC, 25° C.
# T1 construct: made in house
# Protocol: (§1) The temperature of the sample cell was 25° C. The titration was performed with a solution of ligands in the same buffer.
# [2] = biological target: T2, LecBPA14 (Pseudomonas aeruginosa, UniProt A0A0H2ZE85); test: biochemical; type: binding, Pseudomonas aeruginosa UCBPP-PA14; conditions: for N: ITC binding stoichiometry, one site binding model; for N / ΔG / ΔH / −TΔS: LecBPA14; for ΔG / ΔH / −TΔS: ITC, 25° C.
# Protocol: as §1
# [3] = biological target: T2, LecBPA14; test: biochemical; type: binding, Pseudomonas aeruginosa UCBPP-PA14
# Protocol: The measured intensities were reduced by buffer values and fluorescence polarization was calculated. The data were analyzed using BMG Labtech MARS software and/or with Graphpad Prism and fitted according to the four parameter variable slope model. […] A minimum of three independent measurements of triplicates each was performed for every ligand.
# [4] = biological target: T1, LecBPAO1; test: biochemical; type: binding
# [5] = biological target: LecB (Pseudomonas aeruginosa, UniProt Q9HYN5); conditions: background art; cited from earlier work
# Chain of LecB (Q9HYN5 entry or part of it): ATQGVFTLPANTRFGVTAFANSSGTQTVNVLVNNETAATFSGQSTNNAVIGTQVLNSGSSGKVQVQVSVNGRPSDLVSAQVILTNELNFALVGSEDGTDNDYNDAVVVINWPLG
# T2 sequence (A0A0H2ZE85 entry or part of it): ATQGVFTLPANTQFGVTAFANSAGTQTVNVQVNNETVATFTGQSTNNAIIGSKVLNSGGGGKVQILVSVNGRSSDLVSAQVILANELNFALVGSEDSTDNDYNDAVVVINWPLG
# T1 sequence (Q9HYN5 entry or part of it): as the sequence (Q9HYN5 entry or part of it) above
smiles,measurement,setting,value
CC1O[C@H](CNC(=O)/C=C/c2ccccc2)C(O)C(O)[C@@H]1O (stereo partly shown) [drawing 118],Kd,[1],3090 ± 840 nM
same,N,[1],0.93 ± 0.01
same,ΔG,[1],-7.53 ± 0.165 kcal/mol
same,ΔH,[1],-7.86 ± 0.394 kcal/mol
same,−TΔS,[1],0.327 ± 0.32 kcal/mol
same,Kd,[2],2590 ± 390 nM
same,N,[2],1.07 ± 0.05
same,ΔG,[2],-7.29 ± 0.523 kcal/mol
same,ΔH,[2],-7.5 ± 0.344 kcal/mol
same,−TΔS,[2],0.21 ± 0.239 kcal/mol
CC1OCC(O)C(C)(O)[C@@H]1O (stereo partly drawn) [1-deoxy-3(S)—C-(methyl)-L-fucose],IC50,[3],6540 ± 1340 nM
same,IC50,[4],49600 ± 7800 nM
CC1OCC(O)C(O)(C(F)(F)F)[C@@H]1O (stereo partly drawn) [1-deoxy-3(S)—C-(trifluoromethyl)-L-fucose],IC50,[3],> 300000 nM
same,IC50,[4],> 600000 nM
CCC[C@@]1(O)C(C)OCC(O)C1O (stereo partly drawn) [1-deoxy-4(S)—C-(propyl) L-fucose],IC50,[3],230 ± 50 nM
same,IC50,[4],660 ± 90 nM
CCCCCC[C@@]1(O)C(C)OCC(O)C1O (stereo partly drawn) [1-deoxy-4(S)—C-(hexyl) L-fucose],IC50,[3],330 ± 160 nM
same,IC50,[4],610 ± 90 nM
"CC(=O)N[C@H]1C(O)O[C@H](CO)[C@@H](O[C@@H]2O[C@@H](C)[C@@H](O)[C@@H](O)[C@@H]2O)[C@@H]1O[C@@H]1O[C@H](CO)[C@H](O)[C@H](O)[C@H]1O (stereo partly drawn) [Lewis^a trisaccharide, α-Fuc1-4((βGal1-3)-GlcNAc]",Kd,[5],210 nM
Cc1cc(C)c(S(=O)(=O)NC[C@H]2OC(C)[C@@H](O)C(O)C2O)c(C)c1 (stereo partly shown) [drawing 93],IC50,[3],420 ± 200 nM
same,IC50,[4],980 ± 60 nM
CC1O[C@H](CNS(=O)(=O)c2cn(C)cn2)C(O)C(O)[C@@H]1O (stereo partly shown),IC50,[3],1860 ± 230 nM
same,IC50,[4],14200 ± 3570 nM
CCC1(O)C(O)COC(C)[C@H]1O (stereo partly drawn) [1-deoxy-3(S)—C-(ethyl)-L-fucose],IC50,[3],41500 ± 9940 nM
same,IC50,[4],471000 ± 104000 nM
"CC[C@@]1(O)C(C)OCC(O)C1O (stereo partly drawn) [drawing 82, 1-deoxy-4(S)—C-(ethyl) L-fucose]",IC50,[3],140 ± 30 nM
same,IC50,[4],390 ± 60 nM
CC1OCC(O)C(O)[C@@]1(O)c1ccccc1 (stereo partly drawn) [1-deoxy-4(S)—C-(phenyl) L-fucose],IC50,[3],1480 ± 80 nM
same,IC50,[4],4970 ± 360 nM
Cc1cc(S(=O)(=O)NC[C@H]2OC(C)[C@@H](O)C(O)C2O)c(C(F)(F)F)o1 (stereo partly shown),IC50,[3],490 ± 110 nM
same,IC50,[4],3880 ± 700 nM
CC(=O)NCC[C@@]1(O)C(C)OCC(O)C1O (stereo partly drawn) [1-deoxy-4(R)—C-(ethylacetamide) L-fucose],IC50,[3],180 ± 20 nM
same,IC50,[4],520 ± 30 nM
"CC1OCC(O)C(O)[C@@H]1O (stereo partly drawn) [drawing 115, 1-deoxy-L-fucose, reference compound]",Kd,[1],773 ± 110 nM
same,N,[1],1.07 ± 0.03
same,ΔG,[1],-8.34 ± 0.0837 kcal/mol
same,ΔH,[1],-8.68 ± 0.217 kcal/mol
same,−TΔS,[1],0.327 ± 0.272 kcal/mol
same,Kd,[2],453 ± 120 nM
same,N,[2],0.94 ± 0.04
same,ΔG,[2],-8.68 ± 0.153 kcal/mol
same,ΔH,[2],-7.58 ± 0.261 kcal/mol
same,−TΔS,[2],-1.1 ± 0.399 kcal/mol
Cc1csc(S(=O)(=O)NC[C@H]2OC(C)[C@@H](O)C(O)C2O)c1 (stereo partly shown),IC50,[3],310 ± 40 nM
same,IC50,[4],2510 ± 540 nM
"CC1OCC(O)C(O)[C@@H]1O (stereo partly drawn) [drawing 74, 1-deoxy-L-fucose, reference compound]",IC50,[3],600 ± 140 nM
same,IC50,[4],1550 ± 500 nM
"CCCC[C@@]1(O)C(C)OCC(O)C1O (stereo partly drawn) [drawing 84, 1-deoxy-4(S)—C-(butyl) L-fucose]",IC50,[3],230 ± 30 nM
same,IC50,[4],650 ± 10 nM
CC1O[C@H](CNS(=O)(=O)c2ccco2)C(O)C(O)[C@@H]1O (stereo partly shown),IC50,[3],480 ± 10 nM
same,IC50,[4],3480 ± 750 nM
Cc1cc(C)c(S(=O)(=O)NC[C@H]2OC(C)[C@@H](O)C(O)C2O)c(C)c1 (stereo partly shown) [drawing 119],Kd,[1],1270 ± 120 nM
same,N,[1],0.99 ± 0.04
same,ΔG,[1],-8.03 ± 0.0574 kcal/mol
same,ΔH,[1],-8.41 ± 0.0096 kcal/mol
same,−TΔS,[1],0.363 ± 0.0502 kcal/mol
same,Kd,[2],310 ± 50 nM
same,N,[2],0.98 ± 0.05
same,ΔG,[2],-8.87 ± 0.105 kcal/mol
same,ΔH,[2],-9.03 ± 0.88 kcal/mol
same,−TΔS,[2],0.155 ± 0.774 kcal/mol
CC1O[C@H](CNS(=O)(=O)c2ccsc2)C(O)C(O)[C@@H]1O (stereo partly shown),IC50,[3],640 ± 270 nM
same,IC50,[4],1850 ± 130 nM
CCCC[C@@]1(O)C(C)OCC(O)C1O (stereo partly shown) [drawing 117],Kd,[1],401 ± 84 nM
same,N,[1],1.02 ± 0.09
same,ΔG,[1],-8.75 ± 0.0956 kcal/mol
same,ΔH,[1],-11.3 ± 0.12 kcal/mol
same,−TΔS,[1],2.51 ± 0.186 kcal/mol
same,Kd,[2],246 ± 47 nM
same,N,[2],1.03 ± 0.08
same,ΔG,[2],-9.01 ± 0.115 kcal/mol
same,ΔH,[2],-9.42 ± 0.0096 kcal/mol
same,−TΔS,[2],0.394 ± 0.117 kcal/mol
Cc1ccc(S(=O)(=O)NC[C@H]2OC(C)[C@@H](O)C(O)C2O)s1 (stereo partly shown),IC50,[3],650 ± 350 nM
same,IC50,[4],3490 ± 210 nM
CC(C)C(=O)NCC1(O)C(O)COC(C)[C@H]1O (stereo partly drawn) [1-deoxy-3(S)—C-(isobutyrylamidomethyl)-L-fucose],IC50,[3],62600 ± 12400 nM
same,IC50,[4],348000 ± 65000 nM
CCc1ccc(S(=O)(=O)NC[C@H]2OC(C)[C@@H](O)C(O)C2O)s1 (stereo partly shown),IC50,[3],440 ± 40 nM
same,IC50,[4],4220 ± 1130 nM
CC[C@@]1(O)C(C)OCC(O)C1O (stereo partly shown) [drawing 116],Kd,[1],201 ± 42 nM
same,N,[1],1.03 ± 0.13
same,ΔG,[1],-9.13 ± 0.129 kcal/mol
same,ΔH,[1],-12.4 ± 1.09 kcal/mol
same,−TΔS,[1],3.2 ± 1.12 kcal/mol
same,Kd,[2],130 ± 49 nM
same,N,[2],0.96 ± 0.04
same,ΔG,[2],-9.42 ± 0.208 kcal/mol
same,ΔH,[2],-10 ± 0.277 kcal/mol
same,−TΔS,[2],0.619 ± 0.263 kcal/mol
CC1OCC(O)C(O)[C@]1(C)O (stereo partly drawn) [1-deoxy-4(S)—C-(methyl) L-fucose],IC50,[3],170 ± 30 nM
same,IC50,[4],460 ± 70 nM
CC1O[C@H](CNC(=O)c2ccccc2)C(O)C(O)[C@@H]1O (stereo partly shown),IC50,[4],8730 ± 600 nM
CC(C)CC[C@@]1(O)C(C)OCC(O)C1O (stereo partly drawn) [1-deoxy-4(S)—C-(isopentyl) L-fucose],IC50,[3],450 ± 120 nM
same,IC50,[4],780 ± 90 nM
CC1O[C@H](CNC(=O)c2cc3ccccc3o2)C(O)C(O)[C@@H]1O (stereo partly shown),IC50,[3],2560 ± 330 nM
same,IC50,[4],10200 ± 860 nM
CC1OCC(O)C(O)(CNS(=O)(=O)C(C)C)[C@@H]1O (stereo partly drawn) [1-deoxy-3(S)—C-(isopropylsulfonamidomethyl)-L-fucose],IC50,[3],286000 ± 77000 nM
same,IC50,[4],> 600000 nM
CC1OCC(O)C(O)[C@@]1(O)Cc1ccccc1 (stereo partly drawn) [1-deoxy-4(S)—C-(benzyl) L-fucose],IC50,[3],620 ± 80 nM
same,IC50,[4],2610 ± 20 nM
CC1OCC(O)C(O)(CN)[C@@H]1O (stereo partly drawn) [1-deoxy-3(S)—C-(aminomethyl)-L-fucose],IC50,[3],> 300000 nM
same,IC50,[4],> 600000 nM
CC1O[C@H](CNC(=O)/C=C/c2ccccc2)C(O)C(O)[C@@H]1O (stereo partly shown) [drawing 111],IC50,[3],2490 ± 200 nM
same,IC50,[4],4210 ± 940 nM
CC1O[C@H](CNS(=O)(=O)c2ccc(Br)s2)C(O)C(O)[C@@H]1O (stereo partly shown),IC50,[3],620 ± 390 nM
same,IC50,[4],3200 ± 370 nM
CC1OCC(O)C(O)[C@@]1(O)CC#N (stereo partly drawn) [1-deoxy-4(S)—C-(cyanomethyl) L-fucose],IC50,[3],580 ± 110 nM
same,IC50,[4],1690 ± 150 nM
Cc1cc(S(=O)(=O)NC[C@H]2OC(C)[C@@H](O)C(O)C2O)c(C)s1 (stereo partly shown),N,[1],0.98 ± 0.03
same,ΔH,[1],-11.3 ± 0.287 kcal/mol
same,−TΔS,[1],3.23 ± 0.33 kcal/mol
same,N,[2],0.98 ± 0.06
same,ΔH,[2],-9.66 ± 0.265 kcal/mol
same,−TΔS,[2],0.786 ± 0.402 kcal/mol
CC1O[C@H](CNS(=O)(=O)c2ccn(C)n2)C(O)C(O)[C@@H]1O (stereo partly shown),IC50,[3],700 ± 30 nM
same,IC50,[4],6790 ± 1810 nM
CC1OCC(O)C(O)[C@@]1(O)CCNS(C)(=O)=O (stereo partly drawn) [1-deoxy-4(R)—C-(ethylmethylsulfonamide) L-fucose],IC50,[3],150 ± 20 nM
same,IC50,[4],440 ± 70 nM
CC1OCC(O)C(O)[C@@]1(O)C1CCCCC1 (stereo partly drawn) [1-deoxy-4(S)—C-(cyclohexyl) L-fucose],IC50,[3],750 ± 130 nM
same,IC50,[4],2590 ± 90 nM
CC1O[C@H](CNS(=O)(=O)c2cccs2)C(O)C(O)[C@@H]1O (stereo partly shown),N,[1],0.92 ± 0.05
same,ΔH,[1],-11.5 ± 0.0956 kcal/mol
same,−TΔS,[1],3.2 ± 0.0335 kcal/mol
same,N,[2],0.87 ± 0.08
same,ΔG,[2],-8.91 ± 0.0693 kcal/mol
same,ΔH,[2],-12 ± 0.617 kcal/mol
same,−TΔS,[2],3.04 ± 0.645 kcal/mol
